The nature of series [1]: Partition coefficient (log P), n-octanol/PBS. The class given is physicochemical. The method, then: In a 15 mL centrifuge tube, 2.9 mL of PBS (0.1 mol/L, pH = 7.4) and 3 mL of n-octanol were added. [^68Ga]Ga-TATE-46, [^68Ga]Ga-DOTA-TATE, or [^68Ga]Ga-FAPI-46 (14.8 MBq, 100 µL) were added to each tube. The mixture was vortexed at room temperature for 2 min to ensure thorough blending, and then centrifuged at room temperature (effective centrifuge radius 12 cm, 3000 rpm) for 5 min. After allowing sufficient time for phase separation, three 500 µL samples were taken from each layer. The radioactivity of each sample was measured using a γ-counter (count per minute, CPM), and log p = log (n-octanol CPM/water CPM) was calculated. The experiment was repeated three times.

The nature of series [2]: Pharmacokinetics, blood time-activity curves, two-compartment model. The class given is in vivo, BALB/c mice. As to the method:
Nine female healthy BALB/c mice were randomly divided into three groups (with three mice in each group) using a random number table. Each group was administered 100 µL of [^68Ga]Ga-TATE-46, [^68Ga]Ga-DOTA-TATE, or [^68Ga]Ga-FAPI-46 (0.37 MBq) via tail vein injection. Blood samples (5 µL × 3) were collected at 2, 5, 10, 15, 30, 60, 90, and 120 min post-injection via tail vein. The radioactivity in the blood was measured with a γ-counter and converted to blood radioactivity concentration (kBq/mL). The pharmacokinetic data (time–blood radioactivity concentration) were analyzed by using the two-compartment model in the pharmacokinetic software WinNonlin (Certara, Louis, MO, USA, 2018-06) to determine the distribution and clearance half-life parameters of the radiopharmaceuticals in the mice.

Series [3] in a line: Ex vivo biodistribution in NCI-H727 tumor-bearing mice. The conditions noted are these: female, BALB/c nude, mouse, in vivo, 1.48 MBq, total radioactivity, Biodistribution. As to the method:
(§1) Female BALB/c nude mice were obtained from Charles River Laboratories (Beijing, China). […] Approximately 5 × 10^6 cells were implanted into the right shoulder of each mouse to establish an NCI-H727 tumor model and Mc38 tumor model. Once the tumor volume reached 200–300 mm^3, the mice were used for imaging or biodistribution studies. All animal experiments were carried out in accordance with the National Institutes of Health Guidelines for the Care and Use of Laboratory Animals and were approved by the Animal Protection and Utilization Committee of the General Hospital of the PLA (Approval No.: S2023-209-1).
(§2) The NCI-H727 tumor-bearing mice were randomly assigned to four groups (with three mice in each group) and were injected with [^68Ga]Ga-TATE-46 (1.48 MBq, 100 µL). The mice were put to death at 0.5, 1, 2, and 4 h post-injection (p.i.). The tissues and organs of concern were gathered, weighed, and measured for radioactivity using a γ-counter. Additionally, [^68Ga]Ga-DOTA-TATE and [^68Ga]Ga-FAPI-46 were used as control groups in the biodistribution study of the NCI-H727 tumor model at 1 h p.i. After performing time decay correction, the radiotracer uptake in each tissue and organ was calculated as %ID/g.

In series [4] the test system is NCI-H727 tumor-bearing mice. The description is as above. The settings on record: 1 h p.i., γ-counter, mean ± SD, n=3. The method, then: as §1, §2
The mark [5] stands for this setting: female healthy BALB/c mice, n = 3 per group, 0.37 MBq tail vein, blood 2-120 min, γ-counter, two-compartment model (WinNonlin).

Molecules are shown by their SMILES.

As usually defined, the logD is the decadic logarithm of the distribution of all forms, ionised or not, between an organic phase and buffer at a given pH. Low readings indicate a more hydrophilic compound, high ones a more lipophilic compound. As usually defined, the tissue uptake is the share of the injected amount in each gram of the tissue. For the molecule `C[C@@H](O)[C@H](NC(=O)[C@@H]1CSSC[C@H](NC(=O)[C@@H](Cc2ccccc2)NC(=O)CN2CCN(CC(=O)O)CCN(CC(=O)O)CCN(CC(=O)O)CC2)C(=O)N[C@@H](Cc2ccc(O)cc2)C(=O)N[C@H](Cc2c[nH]c3ccccc23)C(=O)N[C@@H](CCCCN)C(=O)N[C@@H]([C@@H](C)O)C(=O)N1)C(=O)O` [[^68Ga]Ga-DOTA-TATE, metal not drawn, reference compound], the pH-dependent lipophilicity (logD) in series [1] (pH 7.4) was -3.02 ± 0.08. Moreover, in series [2] (mouse, in vivo), the distribution half-life came to 1.38 min. The molecule further yielded an elimination half-life in series [2] (mouse, in vivo) of 19.50 min. In addition, the tissue uptake at 1 h in series [3] (Blood) turned out to be 0.42 ± 0.15 %ID/g; in series [3] (Brain) it was 0.03 ± 0.01 %ID/g; in series [3] (Heart), 0.23 ± 0.09 %ID/g; in series [3] (Intestine), 1.48 ± 0.11 %ID/g; in series [3] (Kidney) it was 9.18 ± 3.65 %ID/g; in series [3] (Liver), 1.35 ± 0.28 %ID/g. In addition, the tissue uptake at 1 h in series [3] (Lung) worked out at 5.22 ± 0.82 %ID/g; in series [3] (Spleen) it was 1.22 ± 0.11 %ID/g; in series [3] (Stomach) it was 7.98 ± 0.89 %ID/g; in series [3] (Tumor (tumor uptake)), 1.57 ± 0.17 %ID/g.

As to `CN(CCCN1CCN(C(=O)CN2CCN(CC(=O)[O-])CCN(CC(=O)[O-])CCN(CC(=O)[O-])CC2)CC1)c1ccc2nccc(C(=O)NCC(=O)N3CC(F)(F)C[C@H]3C#N)c2c1.[68Ga+3]` [[^68Ga]Ga-FAPI-46, reference compound], in series [1] (shake-flask n-octanol/PBS (0.1 mol/L, pH 7.4), 14.8 MBq in 100 µL, vortexed 2 min at room temperature, centrifuged 3000 rpm 5 min, γ-counter CPM, mean ± SD, repeated three times), the Log p is listed as −3.05 ± 0.04. In addition, in series [2] (setting [5]), the distribution half-life is listed as 0.64 min and the elimination half-life was 21.77 min. Also, the “Biodistribution, Tumor (tumor uptake)” value in series [4] (NCI-H727 tumor) amounted to 1.07 ± 0.01 %ID/g. Moreover, in series [4] (NCI-H727 tumor-bearing mice), the “Biodistribution, Blood” value stood at 1.05± 0.05 %ID/g; the “Biodistribution, Bone” value was found to be 0.51± 0.05 %ID/g; the “Biodistribution, Brain” value was 0.05± 0.01 %ID/g; the “Biodistribution, Heart” value came to 0.39± 0.16 %ID/g. Also, in series [4] (NCI-H727 tumor-bearing mice), the “Biodistribution, Intestine” value was 0.38± 0.01 %ID/g; the “Biodistribution, Kidney” value was determined as 2.25± 0.12 %ID/g; the “Biodistribution, Liver” value is reported as 2.56± 0.95 %ID/g; the “Biodistribution, Lung” value is reported as 3.17± 0.79 %ID/g. In addition, in series [4] (NCI-H727 tumor-bearing mice), the “Biodistribution, Muscle” value was 0.18± 0.02 %ID/g; the “Biodistribution, Spleen” value amounted to 3.75± 0.75 %ID/g; the “Biodistribution, Stomach” value is recorded as 0.38± 0.01 %ID/g.

These data come from publication PMC11677724, “Preclinical Study of a Dual-Target Molecular Probe Labeled with ^68Ga Targeting SSTR2 and FAP” (Pharmaceuticals, 2024).
